Reference: US20170368018A1, “USE OF ELLAGIC ACID DIHYDRATE IN PHARMACEUTICAL FORMULATIONS TO REGULATE BLOOD GLUCOSE LEVELS” (HALO LIFE SCIENCE, LLC, priority 2014, published 2017)

Tests used:
[1] = test system: AKT / Phos AKT in C2C12 cells; test: AKT:phos AKT ratio by immunocytochemistry, high-content imaging; format: cell-based, mouse; conditions: C2C12, serum starved 1 hr, treated 30 minutes, 4 nM-4 μM, FIG. 8
Experimental: Stimulation of AKT pathways and MAPK pathways in ellagic acid dihydrate, metformin, and insulin treated cell cultures was performed. Insulin stimulates glucose uptake into cells by increasing GLUT4 activation, and AKT, specifically phos-AKT, signaling alters GLUT4 translocation. […] Cellular assays were performed using mouse myoblast C2C12 cells. […] Serum starved cells (1 hr) were treated for 30 minutes with each of the tested compounds.

[2] = test system: p44/42 MAPK / Phos p44/42 MAPK in C2C12 cells; test: p44/42 MAPK:phos p44/42 MAPK ratio by immunocytochemistry, high-content imaging; format: cell-based, mouse; conditions: C2C12, treated 30 minutes, 0.04 nM, FIG. 9
Experimental: Stimulation of AKT pathways and MAPK pathways in ellagic acid dihydrate, metformin, and insulin treated cell cultures was performed. Insulin stimulates glucose uptake into cells by increasing GLUT4 activation, and AKT, specifically phos-AKT, signaling alters GLUT4 translocation. […] Cellular assays were performed using mouse myoblast C2C12 cells. Relative protein levels of AKT:phos AKT and p44/42 MAPK:phos p44/42 MAPK were determined.
Serum starved cells (1 hr) were treated for 30 minutes with each of the tested compounds. Ratios of phosphorylated to non-phosphorylated proteins were determined using immunocytochemistry labeling (anti-AKT, anti-Phos AKT; or anti-p44/42 MAPK, anti-Phos p44/42 MAPK) on a high-content imaging system (Operetta, Perkin Elmer) using the fluorescent signal of anti-rabbit Alexa 647. Increased phosphorylation is indicated as decrease in signal of AKT:Phos AKT ratio (log2 scale) and p44/42 MAPK:Phos p44/42 MAPK ratio (log2 scale) relative to vehicle treated cells.

[3] = test system: MEF cells; test: Glucose uptake, 2-NBDG labeling, high-content imaging (Operetta), MEFs; format: cell-based, mouse
Experimental: (§1) Increased glucose uptake was indicated as increasing signal of 2-NBDG ([…]) in cells. Glucose uptake assays were carried out in a final incubation volume of 50 μl consisting of, 2-NBDG), (100 μM) in 1× Phosphate Buffered Saline w/Ca+, Mg+ (PBS++). The same buffer was used for washing cells. Insulin was used as a positive control. All testing compounds were prepared in 10% DMSO and diluted 1:100 for a final concentration of 0.1% DMSO (vehicle). Cells were culture to 70-90% confluence and then washed twice with PBS++. Cells were incubated for 30 minutes at 37° C. in PBS++. Nuclear stain, HCS CellMask stain (blue, Invitrogen), and/or testing compounds (ellagic acid dihydrate, insulin, or vehicle) were added. Cells were incubated for 30 min at 37° C. Cells were washed twice with PBS++and incubated with 2-NBDG for 10 minutes. Cells were washed thrice with PBS++and then imaged in PBS++. Alternatively, the final PBS wash was removed and cells were incubated with Accutase (Invitrogen) for 10 min at 37° C., neutralized with 10% FBS in 1× PBS, and analyzed by flow cytometry. An additional experiment was performed to measure glucose uptake in C2C12 cells exposed to metformin, insulin and ellagic acid dihydrate 2 (batch 2). FIG. 5C. Glucose uptake in ellagic acid dihydrate treated cell culture was measured and compared to glucose uptake under insulin or ellagic acid treatment. […] Flow cytometry results were run in triplicate with 1000 cells per batch.

[4] = test system: female SWV mice with STZ induced diabetes; test: Weight loss and blood glucose in mice with STZ induced diabetes; format: in vivo, mouse; conditions: STZ diabetic mice, thirty days
Experimental: Weight loss and blood glucose in diabetes induced mice treated with ellagic acid was determined and weight loss and blood glucose in mice treated with ellagic acid dihydrate may be determined by the following procedures. Induction of Diabetes: Diabetes is induced in mice by intraperitoneal injection with Streptozotocin (STZ 40 mg/kg) daily for five days. The mice are considered hyperglycemic when the glucose level of each dam is above 200 mg/dL. The mice are fasted for 4 hours before STZ injection and glucose measurement. Treatment: The mice are treated daily for thirty days with ellagic acid or control in the form of a supplemental pill homogenized and suspended in 25% water solution of Cremophor EL. The mice are treated for one month via gavage using the human equivalent dose of 122.4 mg pill/kg of subject (40.6 mg ellagic acid/kg of the subject), the human equivalent does of 40.6 mg ellagic acid/kg of the subject using 98% pure ellagic acid, or control vehicle (25% water solution of Cremophor EL). The human equivalent dose is calculated as described in Example 8. Treatments would start two weeks after the last STZ injection in which hyperglycemia is confirmed in the diabetic mice. The mice would be weighed daily and glucose levels would be measured in fasted animals every five days.

[5] = test system: MEF cells; test: Glucose uptake, 2-NBDG labeling, flow cytometry, MEFs; format: cell-based, mouse
Experimental: as §1, with “Cellular assays were performed using mouse myoblast C2C12 cells and MEF cells. […] Increased” for “Increased”

[6] = test system: female SWV mice; test: Weight loss and blood glucose in mice, thirty days daily gavage; format: in vivo, mouse; conditions: for body weight lost on average: supplemental pill, gavage daily
Experimental: Weight loss and blood glucose in mice treated with ellagic acid was determined and weight loss and blood glucose in mice treated with ellagic acid dihydrate may be determined by the following procedure. Mice are treated daily for thirty days with ellagic acid or control in the form of a supplemental pill homogenized and suspended in 25% water solution of Cremophor EL. The mice are treated via gavage using the human equivalent dose (LD) of 122.4 mg pill/kg of subject (40.6 mg ellagic acid/kg of the subject), 10× higher dose (HD) of 1224 mg pill/kg of the subject (406 mg ellagic acid/kg of the subject), or control vehicle (25% water solution of Cremophor EL). The LD and HD dose amounts are calculated based on the following assumptions: a human dose is one 603 mg (200 mg ellagic acid) pill/day, taken orally; the average weight of a person is 60 kg, thus, the average dose for a human equals approximately 9.95 mg of the pill (3.3 mg ellagic acid)/kg daily; a mouse equivalent dose requires 12.3 times the human dose per kg. The mice are weighed and treated daily, and blood glucose level are measured every two days for a total one month period.

[7] = test system: mice; test: Activity level in mice; format: in vivo, mouse; conditions: observation by the Applicant in treated mice
Text: Activity levels in mice treated with ellagic acid dihydrate may be quantified by several procedures, such as those outlined in Turri, M. et al.; QTL Analysis Identifies Multiple Behavioral Dimensions in Ethological Tests of Anxiety in Laboratory Mice; Current Biology; 2001; 11(10): 725-734. Two examples of procedures taught therein follows. Gross Locomotor Activity in Home Cage: Mice are caged singly several days prior to home cage activity monitoring and subsequent testing. Activity in home cages are measured during the first 2 hours of the dark cycle on two consecutive days. Two infrared photo emitter-detector pairs, located outside the clear plastic home cage that divide the cage into three equal areas, are used to record gross locomotor activity on the floor of the home cage as the animal breaks the photo beams. The beam-break activity score consists of the square root of the number of beam breaks for each detector summed across the two test days. Magnitude of Activity in Home Cage: Mice are caged singly several days prior to home cage activity monitoring and subsequent testing. Activity in home cages are measured during the first 2 hours of the dark cycle on two consecutive days. An infrared motion detector located above the top of the home cage is employed to converts all motion sensed within the home cage into arbitrary units, based on the magnitude of activity detected.

[8] = test system: GLUT4-GFP in mouse myoblast C2C12 cells; test: Localization of glucose transporter GLUT4-GFP, time-lapse confocal microscopy; format: cell-based; conditions: C2C12, 4000 nM
Experimental: Induction of glucose transporter, GLUT-4, in ellagic acid dihydrate treated cell cultures was studied. Cellular assays were performed using mouse myoblast C2C12 cells. The cells were infected with a fusion glucose transporter 4 green fluorescent protein (GLUT4-GFP). This protein allows the visualization of GLUT4 by imaging the GFP under fluorescent time-lapse microscopy. Frames were compiled to produce time-lapse images of cellular changes with no treatment or treatment with insulin. The localization of glucose transporter (GLUT4-GFP) was performed in final incubation volume of 505 μL, consisting of 500 μL of Hank's Buffer (Invitrogen) and 5 μl of tested compounds. Insulin was used as positive controls and vehicle (0.1% DMSO) as the negative control. All test compounds were prepared in 10% DMSO and diluted 1:100 for a final concentration of 0.1% DMSO (vehicle). The cells were rinsed in Hank's Buffer thrice and then incubated in Hank's Buffer at 37° C. for one hour. The test compounds were added (ellagic acid dihydrate, insulin, or vehicle) and the cells were imaged using laser-confocal microscopy (Leica TCS SP5 X) with FITC fluorescent filters to determine changes in GLUT4-GFP localization. Time-lapse images (TIF) were collected and post-processed using Image-J (NIH) for video construction.

[9] = test system: mouse myoblast C2C12 cells; test: Glucose uptake, 2-NBDG labeling, flow cytometry, C2C12; format: cell-based
Experimental: Cellular assays were performed using mouse myoblast C2C12 cells and MEF cells. […] Increased glucose uptake was indicated as increasing signal of 2-NBDG ([…]) in cells. Glucose uptake assays were carried out in a final incubation volume of 50 μl consisting of, 2-NBDG), (100 μM) in 1× Phosphate Buffered Saline w/Ca+, Mg+ (PBS++). The same buffer was used for washing cells. Insulin was used as a positive control. All testing compounds were prepared in 10% DMSO and diluted 1:100 for a final concentration of 0.1% DMSO (vehicle). Cells were culture to 70-90% confluence and then washed twice with PBS++. Cells were incubated for 30 minutes at 37° C. in PBS++. Nuclear stain, HCS CellMask stain (blue, Invitrogen), and/or testing compounds (ellagic acid dihydrate, insulin, or vehicle) were added. Cells were incubated for 30 min at 37° C. Cells were washed twice with PBS++and incubated with 2-NBDG for 10 minutes. Cells were washed thrice with PBS++and then imaged in PBS++. Alternatively, the final PBS wash was removed and cells were incubated with Accutase (Invitrogen) for 10 min at 37° C., neutralized with 10% FBS in 1× PBS, and analyzed by flow cytometry. An additional experiment was performed to measure glucose uptake in C2C12 cells exposed to metformin, insulin and ellagic acid dihydrate 2 (batch 2). FIG. 5C.

Row | Compound | AKT:Phos AKT ratio (log2 scale) relative to vehicle treated cells [1] | p44/42 MAPK:Phos p44/42 MAPK ratio relative to vehicle treated cells [2] | dose effect for increasing glucose uptake [3] | body weight lost on average ([4]; human equivalent dose, daily) | mean glucose level values, treated versus control mice [4] | glucose uptake per unit dose ([5]; in vitro conditions, summary statement) | blood glucose ([6]; all treatments (LD, HD) compared to control) | body weight lost on average ([6]; 10× higher dose (HD, 406 mg ellagic acid/kg)) | body weight lost on average ([6]; human equivalent dose (LD, 40.6 mg ellagic acid/kg)) | activity levels [7] | glucose uptake (signal of 2-NBDG) in comparison to vehicle [3] | GLUT4-GFP around the cell nucleus [8] | ruffling of filopodia at the surface of the cell [8] | p44/42 MAPK:Phos p44/42 MAPK ratio relative to vehicle treated cells ([2]; 400 nM) | increased glucose uptake relative to vehicle treated cells ([5]; 400 nM exposure, fibroblasts, FIG. 4B) | dose effect for increasing glucose uptake ([5]; MEFs, flow cytometry, 4 μM-0.04 nM) | glucose uptake (2-NBDG signal) relative to vehicle ([5]; MEFs, flow cytometry, FIG. 4A) | increase in glucose uptake in myoblasts relative to fibroblasts ([9]; C2C12 (FIGS. 5A, 5B) versus MEFs (FIGS. 4A, 4B)) | dose effect for increasing glucose uptake ([9]; C2C12, flow cytometry, 4 μM-0.04 nM) | glucose uptake (2-NBDG signal) relative to vehicle ([9]; C2C12, flow cytometry, FIG. 5A)
1 | CN(C)C(=N)N=C(N)N [metformin] | increase in AKT relative to phosphorylation of AKT | increased the ratio of p44/42 MAPK | – | – | – | – | – | – | – | – | – | – | – | – | – | – | – | – | – | –
2 | O=c1oc2c(O)c(O)cc3c(=O)oc4c(O)c(O)cc1c4c23 [ellagic acid] | – | – | no such dose effect | 11.7 % of body weight | no significant differences | little to no glucose uptake per unit dose | Normal levels of blood glucose | 10.4 % of body weight | 8.9 % of body weight | increased activity levels | – | – | – | – | – | – | – | – | – | –
3 | insulin: Insulin was used as a positive control [reference compound] | −0.5 | – | showed a dose effect | – | – | – | – | – | – | – | showed an increase in glucose uptake | decrease in GLUT4-GFP around the cell nucleus | rapid production of numerous projections | increase in p44/42 MAPK | 32% | showed a dose effect | significant increase | ~4 × | showed a dose effect | significant increase
